The conditions of assay [1]: ref El-Hady et al., 2013; cited from earlier work.
The subject of the next assay is AChE. The note with it: read-out: AChE IC50; ref El-Hady et al., 2013; cited from earlier work.
A short description of assay [2]: DPPH radical scavenging activity. The note with it: for DPPH radical scavenging activity: mean ± SD, n = 3; for free-radical scavenging activity (DPPH and ABTS): 0.2 mg/mL (200 μg/mL). Type of assay: biochemical. How it is done: The DPPH scavenging activities of PWE and isolated compounds were determined according to the method described by Blois ([1958]). In the method, the stable DPPH radical is removed by the free‐radical scavenging activity of the sample. […] Then, the prepared DPPH solution (1 mL, […]) was added, followed by incubation for 30 min in the dark. After incubation, the DPPH elimination activity of the sample was measured spectrophotometrically (Necip et al., [2021]).

Assay [3] in a line: ABTS radical scavenging activity. The note with it: 0.2 mg/mL; mean ± SD, n = 3. Format: biochemical. How it is done:
ABTS also forms a relatively stable free‐radical that removes color in its non‐radical form (Shirwaikar et al., [2006]). Spectrophotometric analysis of ABTS˙^+ scavenging activity was determined according to the Re method. In this method, the sample is added to the previously formed ABTS radical solution, and the amount of ABTS˙^+ remaining after a fixed time is spectrophotometrically at 734 nm. […] The absorbance was recorded 30 min after mixing, and the percentage of radical scavenging was calculated for each concentration compared to the blank sample without scavenger (Necip & Durgun, [2022]; Re et al., [1999]).

Assay [4] has as its target AChE from electrophorus electricus (Electrophorus electricus, UniProt O42275). The assay is described as follows: biochemical. How it is done: Briefly, 50 μL of 5,5′‐dithio‐bis(2‐nitro‐benzoic) acid compound (DTNB) and 100 μL of Tris–HCl solution (1 M, pH 8.0) and 50 μL AChE from electrophorus electricus (5.32 × 10^−3 U) solution was incubated and stirred at 30°C for 15 min. Finally, the reaction was started by adding 50 μL of acetylthiocholine iodide (AChI), which was used as a substrate. Enzymatic hydrolysis of the substrate was recorded spectrophotometrically at a wavelength of 412 nm (Işık et al., [2020]; Wright & Plummer, [1973]). […] Percent inhibition values and IC50 values were determined using a graph (Kilic et al., [2020]).

The nature of assay [5]: FRAP metal reduction assay. Type of assay: biochemical. The note with it: for metal reduction capacity, FRAP (in words): 0.2 mg/mL, Figure 5; for metal-reducing capacity (in words): FRAP and CUPRAC, statement in discussion. How it is done: (§1) The ferric cyanide (Fe^3+) reducing antioxidant power (FRAP) assay was performed using the modified method of the previously described Oyaizu method (Oyaizu, [1986]). The complex is formed when the method is reduced to the ferrous (Fe^2+) ion to ferric tripyridyl triazene (Fe^3+‐TPTZ) complex at 700 nm. It is based on the spectrophotometric measurement of the complex. The reduction capacity for cupric ions (Cu^2+) was determined by cupric ions reducing assay (CUPRAC) as previously described. A volume of 0.25 mL neocuproine (7.5 mM) in ethanol, 0.25 mL NH4Ac (1 M), and 0.25 mL CuCl2 (0.01 M) were mixed with isolated compounds, PWE, and different amounts of standards (10, 20, and 40 μg/mL).

The nature of assay [6]: CUPRAC cupric ions reducing assay. Type of assay: biochemical. The following applies: 0.2 mg/mL, Figure 5. How it is done:
as §1

The text below walks through data of paper PMC10916560 (Food Science & Nutrition, 2023).

“Also recorded” adds a separate entry of the source. Read-outs that look alike come from different tables or passages of the source.

Chain of AChE from electrophorus electricus (O42275 24-633): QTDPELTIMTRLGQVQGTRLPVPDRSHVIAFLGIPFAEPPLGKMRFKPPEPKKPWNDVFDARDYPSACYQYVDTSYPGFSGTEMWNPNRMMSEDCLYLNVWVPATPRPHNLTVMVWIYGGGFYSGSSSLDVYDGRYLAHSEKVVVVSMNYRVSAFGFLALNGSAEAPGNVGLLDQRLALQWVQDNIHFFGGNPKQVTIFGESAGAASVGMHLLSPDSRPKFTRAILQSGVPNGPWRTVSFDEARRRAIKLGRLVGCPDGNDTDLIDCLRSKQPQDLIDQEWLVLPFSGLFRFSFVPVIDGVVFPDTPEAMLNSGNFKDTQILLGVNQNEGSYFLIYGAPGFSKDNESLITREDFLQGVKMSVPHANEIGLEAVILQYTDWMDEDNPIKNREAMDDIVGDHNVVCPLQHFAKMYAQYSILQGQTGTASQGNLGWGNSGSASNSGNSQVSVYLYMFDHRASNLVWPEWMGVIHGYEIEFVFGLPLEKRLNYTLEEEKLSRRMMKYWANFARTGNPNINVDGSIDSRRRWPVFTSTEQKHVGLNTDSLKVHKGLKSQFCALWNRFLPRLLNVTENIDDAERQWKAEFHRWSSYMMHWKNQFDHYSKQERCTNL

For the compound `CC(C)=CCC[C@@H](C)[C@H]1CC[C@@]2(C)[C@@H]3CC[C@H]4C(C)(C)[C@@H](O)CC[C@@]45C[C@@]35CC[C@]12C` [3β‐cycloartenol], the free-radical scavenging activity in assay [1] was 59%. Further, the concentration for half-maximal inhibition (IC50) with AChE is 3.6 ± 0.1 µM.
For `O=c1cc(-c2ccc(O)cc2)oc2cc(O)cc(O)c12` [Apigenin, apigenin], the “DPPH radical scavenging activity” value in assay [2] (0.2 mg/mL) was 79.02 ± 2.2%. Also, the “free-radical scavenging activity (DPPH and ABTS)” value in assay [2] (DPPH and ABTS) was “over 60%”. Besides, the “ABTS radical scavenging activity” value in assay [3] worked out at 59.41 ± 1.5%. Moreover, the half-maximal inhibitory concentration (IC50) in assay [4] came out at 710 ± 30 µM. Further, in assay [5], the “metal reduction capacity, FRAP (in words)” value is “moderate metal reduction capacity” and the “metal-reducing capacity (in words)” value is “high metal‐reducing capacity”. In addition, the “metal reduction capacity, CUPRAC (in words)” value in assay [6] is “metal reduction capacity close to the standards”.
As for `COc1ccc(O)c(C(C)(C)C)c1` [BHA, reference compound], the “DPPH radical scavenging activity” value in assay [2] (0.2 mg/mL) is on record as 80.20 ± 2.9%. The “ABTS radical scavenging activity” value in assay [3] is reported as 93.62 ± 3.6%.
Turning to `Cc1cc(C(C)(C)C)c(O)c(C(C)(C)C)c1` [BHT, reference compound], in assay [2] (0.2 mg/mL), the “DPPH radical scavenging activity” value was found to be 51.57 ± 1.5%. Besides, the “ABTS radical scavenging activity” value in assay [3] is reported as 58.06 ± 2.4%.
Regarding `O=c1cc(-c2ccccc2)oc2cc(O)cc(O)c12` [Chrysin, chrysin], the “DPPH radical scavenging activity” value in assay [2] (0.2 mg/mL) is “Inactive”. In addition, in assay [3], the “ABTS radical scavenging activity” value amounted to 4.35 ± 0.7%. Moreover, 640 ± 20 µM corresponded to half-maximal inhibition in assay [4] (IC50).
As to `COc1cc2ccc(=O)oc2c(O)c1O` [Fraxetin, fraxetin], the “DPPH radical scavenging activity” value in assay [2] (0.2 mg/mL) came out at 81.11 ± 1.7%. In addition, the “radical scavenging activity (in words)” value in assay [2] (DPPH and ABTS, 0.2 mg/mL) is on record as “highest radical scavenging activities”. The “free-radical scavenging activity (DPPH and ABTS)” value in assay [2] (DPPH and ABTS) was “over 60%”. The “ABTS radical scavenging activity” value in assay [3] came to 87.44 ± 3.8%. In assay [4], this compound showed an IC50 of 730 ± 40 µM. Besides, in assay [5], the “metal reduction capacity, FRAP (in words)” value is “moderate metal reduction capacity” and the “metal-reducing capacity (in words)” value is “high metal‐reducing capacity”. In addition, the “metal reduction capacity, CUPRAC (in words)” value in assay [6] was “metal reduction capacity close to the standards”.
Take `O=c1c(O)c(-c2ccccc2)oc2cc(O)cc(O)c12` [Galangin, galangin]: the “DPPH radical scavenging activity” value in assay [2] (0.2 mg/mL) came to 44.73 ± 1.8%. Moreover, the “free-radical scavenging activity (DPPH and ABTS)” value in assay [2] (DPPH and ABTS) is listed as “over 60%”. For the same compound, in assay [3], the “ABTS radical scavenging activity” value is 62.01 ± 1.9%. Further, the half-inhibitory concentration (IC50) in assay [4] amounted to 790 ± 20 µM. In assay [5], the “metal reduction capacity, FRAP (in words)” value is listed as “high metal reduction activity” and the “metal-reducing capacity (in words)” value is recorded as “high metal‐reducing capacity”. Moreover, the “metal reduction capacity, CUPRAC (in words)” value in assay [6] (listed as 15) is “high metal reduction activity; also recorded: metal reduction capacity close to the standards”.
On to `COc1cc(O)c2c(=O)cc(-c3ccc(O)cc3)oc2c1` [Genkwanin, genkwanin], for which the “DPPH radical scavenging activity” value in assay [2] (0.2 mg/mL) is listed as “Inactive”. The “ABTS radical scavenging activity” value in assay [3] is reported as 8.95 ± 0.8%. For the same compound, the 50% inhibitory concentration (IC50) in assay [4] came out at 1150 ± 30 µM.
Taken in the same sequence, the figures for `O=C1c2c(O)cc(O)cc2O[C@H](c2ccccc2)[C@H]1O` [Pinobanksin, pinobanksin] were 3.55 ± 0.6%, 15.63 ± 0.9% and 450 ± 10 µM.
For `O=C1C[C@@H](c2ccccc2)Oc2cc(O)cc(O)c21` [Pinocembrin, pinocembrin], the “DPPH radical scavenging activity” value in assay [2] (0.2 mg/mL) is listed as “Inactive”. Moreover, in assay [3], the “ABTS radical scavenging activity” value is reported as 26.32 ± 1.3%. For the same compound, the half-maximal inhibitory concentration (IC50) in assay [4] (isolated compounds, read-out: AChE (IC50)) is 1100 ± 40 µM.
As for `Cc1c(C)c2c(c(C)c1O)CCC(C)(C(=O)O)O2` (stereo not drawn) [Trolox, trolox, reference compound], the “DPPH radical scavenging activity” value in assay [2] (0.2 mg/mL) amounted to 90.37 ± 3.8%. For the same compound, the “ABTS radical scavenging activity” value in assay [3] turned out to be 89.99 ± 3.2%.
